The text below walks through data of patent US11000033B2, “Ketone or oxime compound, and herbicide” (NISSAN CHEMICAL CORPORATION, priority 2014, dated 2021).

Common to all, as to type: in vivo
Data set [1] concerns Chenopodium album. The experiment in a line: Test Example 4: herbicidal effect by soil treatment (symbol O). As to conditions: application herbicide amount 320 g/ha. An outline of the steps:
(§1)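 Seeds were sown in sterilized diluvial soil, covered with about 1.5 cm of soil, and the soil surface was sprayed with a water-diluted emulsion of the compound at a predetermined rate. Plants grew in a greenhouse at 25° C. to 30° C.; effects were scored visually 3 weeks after application.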

Another data set deals with transplanted rice plant. Put plainly: Test Example 1: effect on crop, application before weed generation in submerged conditions (symbol a). Particulars: application herbicide amount 320 g/ha. An outline of the steps:
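Rice at 2.5 leaf stage transplanted into submerged soil (4 cm depth) sown with three weed species; herbicide applied before weed emergence.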

Data set [2] has as its system Echinochloa oryzacola Vasing. Put plainly: Test Example 2: herbicidal activity, application during weed generation in submerged conditions (symbol A). As to conditions: Table 23; application herbicide amount 320 g/ha; grade 0-5 by criteria of Test Example 1. The procedure, abridged: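 Steps: fill pots with alluvial soil; add water to 4 cm depth; co-sow the three weeds; grow at 25° C. to 30° C. under glass; at 1–2 leaves, dose the floodwater with diluted emulsion; rate damage visually after 3 weeks.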

Data set [3] concerns Echinochloa crus-galli var. crus-galli. The experiment in a line: Test Example 4: herbicidal effect by soil treatment (symbol H). As to conditions: application herbicide amount 320 g/ha. The procedure, abridged:
as §1

The next data set deals with Leptochloa chinensis. The experiment in a line: Test Example 3: herbicidal effect by foliage application, Wagner pot (symbol D). Particulars: application herbicide amount 320 g/ha. The procedure, abridged:
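Post-emergence, paddy-type test: seedlings 14 d old in shallow-flooded (0.1–0.5 cm) alluvial soil, 25–30 °C greenhouse. Emulsion diluted to target rate, sprayed on leaves. Read-out: visual effect on each species at 3 weeks, per set criteria.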

Data set [4] deals with Veronica persica. Put plainly: Test Example 5: herbicidal effect by foliage application, plastic box (symbol R). As to conditions: 320 g/ha, 3 weeks after application. The procedure, abridged: (§2)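 Greenhouse foliar test: seedlings at 14 days, grown 25° C. to 30° C. in sterilized diluvial soil; compound applied as an aqueous dilution of an emulsion; response read 3 weeks after spraying.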

Data set [5] deals with Veronica persica. Put plainly: Test Example 4: herbicidal effect by soil treatment (symbol R). Particulars: application herbicide amount 320 g/ha. The procedure, abridged:
as §1

The subject of a further data set is Setaria viridis. Put plainly: Test Example 5: herbicidal effect by foliage application, plastic box (symbol G). Particulars: 320 g/ha, 3 weeks after application. The procedure, abridged: as §2
In data set [6] the test system is Avena fatua. The experiment in a line: Test Example 5: herbicidal effect by foliage application, plastic box (symbol I). As to conditions: 320 g/ha, 3 weeks after application. An outline of the steps: as §2
The test system of data set [7] is Chenopodium album. The experiment in a line: Test Example 5: herbicidal effect by foliage application, plastic box (symbol O). As to conditions: 320 g/ha, 3 weeks after application. An outline of the steps:
as §2

Data set [8] concerns Avena fatua. Put plainly: Test Example 4: herbicidal effect by soil treatment (symbol I). Particulars: application herbicide amount 320 g/ha. The procedure, abridged:
as §1

A further data set has as its system Digitaria ciliaris. The experiment in a line: Test Example 4: herbicidal effect by soil treatment (symbol F). Particulars: application herbicide amount 320 g/ha. The procedure, abridged: as §1
In a further data set the test system is Lolium multiflorum Lam. The experiment in a line: Test Example 4: herbicidal effect by soil treatment (symbol K). As to conditions: application herbicide amount 320 g/ha. An outline of the steps: as §1
The subject of another data set is corn. Put plainly: Test Example 5: effect on crop by foliage application, plastic box (symbol c). Particulars: 320 g/ha, 3 weeks after application. The procedure, abridged: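 Box culture: sterile diluvial soil, seeds spot-sown, ~1.5 cm cover, raised under glass at 25–30° C.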

As for `CON=C(C)CC1CC(O)=C(c2c(C)cc(-c3ccccn3)cc2C)C1=O` (mixture of isomers) [6-051], the “O: Chenopodium album, herbicidal effect grade” value was 0 (Herbicidal ratio of 5% or lower (almost no effect)) with Chenopodium album [1] and 5 (Herbicidal ratio of 90% or more (almost completely withered)) in the data set on Chenopodium album [7]. In the data set with transplanted rice plant, the “Effect grade on crop, a: transplanted rice plant” value (“Effect grade on crop” below) is on record as 5 (Herbicidal ratio of 90% or more (almost completely withered)). Further, the “Herbicidal effect grade, A: Echinochloa oryzacola Vasing.” value in data set [2] was 5 (Herbicidal ratio of 90% or more (almost completely withered)). Besides, in [3], the “H: Echinochloa crus-galli var. crus-galli, herbicidal effect grade” value is 5 (Herbicidal ratio of 90% or more (almost completely withered)). Moreover, in the data set with Leptochloa chinensis, the “herbicidal effect on D (Leptochloa chinensis), grade 0-5” value (from here on “herbicidal effect on D”) was 5 (Herbicidal ratio of 90% or more (almost completely withered)). Moreover, the “R: Veronica persica, herbicidal effect grade” value is 4 (Herbicidal ratio of 70% or higher and lower than 90%) with Veronica persica [4]; 0 (Herbicidal ratio of 5% or lower (almost no effect)) in the data set with Veronica persica [5]. Also, the “G: Setaria viridis, herbicidal effect grade” value in the data set with Setaria viridis is recorded as 5 (Herbicidal ratio of 90% or more (almost completely withered)). The “I: Avena fatua, herbicidal effect grade” value in the data set with Avena fatua [6] is 4 (Herbicidal ratio of 70% or higher and lower than 90%); in the data set with Avena fatua [8], 1 (Herbicidal ratio of 5% or higher and lower than 20%). Further, in the data set on Digitaria ciliaris, the “F: Digitaria ciliaris, herbicidal effect grade” value is 5 (Herbicidal ratio of 90% or more (almost completely withered)). Moreover, the “K: Lolium multiflorum Lam., herbicidal effect grade” value in the data set with Lolium multiflorum Lam. is listed as 5 (Herbicidal ratio of 90% or more (almost completely withered)). Also, in the data set with corn, the “c: corn, effect on crop grade” value is listed as 5 (Herbicidal ratio of 90% or more (almost completely withered)).
In the case of `CON=C(C)CC1CC(OC(=O)COc2ccccc2)=C(c2c(C)cc(-c3ccc(Cl)cc3Cl)cc2C)C1=O` (stereo not shown) [6-092], the “Herbicidal effect grade, O: Chenopodium album” value in the data set on Chenopodium album [1] is 0 (Herbicidal ratio of 5% or lower (almost no effect)). The “Effect grade on crop” value in the data set with transplanted rice plant is 0 (Herbicidal ratio of 5% or lower (almost no effect)). The “Herbicidal effect grade, A: Echinochloa oryzacola Vasing.” value in data set [2] is 1 (Herbicidal ratio of 5% or higher and lower than 20%). In data set [3], the “Herbicidal effect grade, H: Echinochloa crus-galli var. crus-galli” value was 3 (Herbicidal ratio of 40% or higher and lower than 70%). The “herbicidal effect on D” value in the data set on Leptochloa chinensis was 5 (Herbicidal ratio of 90% or more (almost completely withered)). Moreover, the “R: Veronica persica, herbicidal effect (criteria of Test Example 1)” value in the data set with Veronica persica [4] is 4 (Herbicidal ratio of 70% or higher and lower than 90%). Besides, the “Herbicidal effect grade, R: Veronica persica” value in the data set with Veronica persica [5] was 0 (Herbicidal ratio of 5% or lower (almost no effect)). The “G: Setaria viridis, herbicidal effect (criteria of Test Example 1)” value with Setaria viridis is 5 (Herbicidal ratio of 90% or more (almost completely withered)). Further, in the data set with Avena fatua [6], the “I: Avena fatua, herbicidal effect (criteria of Test Example 1)” value is reported as 5 (Herbicidal ratio of 90% or more (almost completely withered)). Further, the “O: Chenopodium album, herbicidal effect (criteria of Test Example 1)” value in the data set on Chenopodium album [7] is 5 (Herbicidal ratio of 90% or more (almost completely withered)). In the data set with Avena fatua [8], the “Herbicidal effect grade, I: Avena fatua” value is 3 (Herbicidal ratio of 40% or higher and lower than 70%). In the data set with Digitaria ciliaris, the “Herbicidal effect grade, F: Digitaria ciliaris” value is listed as 5 (Herbicidal ratio of 90% or more (almost completely withered)). In addition, the “Herbicidal effect grade, K: Lolium multiflorum Lam.” value in the data set on Lolium multiflorum Lam. was 5 (Herbicidal ratio of 90% or more (almost completely withered)). Besides, the “c: corn, effect on crop (criteria of Test Example 1)” value in the data set on corn is 2 (Herbicidal ratio of 20% or higher and lower than 40%).
On to `CON=C(C)CC1CC(O)=C(c2c(C)cc(-c3ncccn3)cc2C)C1=O` (mixture of isomers) [6-057], for which the “O: Chenopodium album, herbicidal effect grade” value in the data set on Chenopodium album [1] is reported as 0 (Herbicidal ratio of 5% or lower (almost no effect)). Also, in the data set with transplanted rice plant, the “Effect grade on crop” value is 5 (Herbicidal ratio of 90% or more (almost completely withered)). Further, in data set [2], the “Herbicidal effect grade, A: Echinochloa oryzacola Vasing.” value is 3 (Herbicidal ratio of 40% or higher and lower than 70%). The “H: Echinochloa crus-galli var. crus-galli, herbicidal effect grade” value in data set [3] is reported as 5 (Herbicidal ratio of 90% or more (almost completely withered)). Also, the “herbicidal effect on D” value in the data set on Leptochloa chinensis is given as 5 (Herbicidal ratio of 90% or more (almost completely withered)). The “R: Veronica persica, herbicidal effect (criteria of Test Example 1)” value in the data set on Veronica persica [4] is 4 (Herbicidal ratio of 70% or higher and lower than 90%). Besides, the “R: Veronica persica, herbicidal effect grade” value with Veronica persica [5] is listed as 0 (Herbicidal ratio of 5% or lower (almost no effect)). Besides, the “G: Setaria viridis, herbicidal effect (criteria of Test Example 1)” value with Setaria viridis is listed as 5 (Herbicidal ratio of 90% or more (almost completely withered)). For the same compound, the “I: Avena fatua, herbicidal effect (criteria of Test Example 1)” value in the data set on Avena fatua [6] is 5 (Herbicidal ratio of 90% or more (almost completely withered)). In addition, the “O: Chenopodium album, herbicidal effect (criteria of Test Example 1)” value in the data set on Chenopodium album [7] is 4 (Herbicidal ratio of 70% or higher and lower than 90%). The “I: Avena fatua, herbicidal effect grade” value in the data set with Avena fatua [8] was 0 (Herbicidal ratio of 5% or lower (almost no effect)). Moreover, the “F: Digitaria ciliaris, herbicidal effect grade” value with Digitaria ciliaris is 5 (Herbicidal ratio of 90% or more (almost completely withered)). The “K: Lolium multiflorum Lam., herbicidal effect grade” value with Lolium multiflorum Lam. was 5 (Herbicidal ratio of 90% or more (almost completely withered)). In addition, in the data set with corn, the “c: corn, effect on crop (criteria of Test Example 1)” value was 5 (Herbicidal ratio of 90% or more (almost completely withered)).
For `CON=C(C)CC1CC(O)=C(c2c(C)cc(Oc3ccccc3)cc2C)C1=O` (stereo not shown) [6-052], the “O: Chenopodium album, herbicidal effect grade” value in the data set with Chenopodium album [1] and in the data set with Chenopodium album [7] was 0 (Herbicidal ratio of 5% or lower (almost no effect)) throughout. In the data set on transplanted rice plant, the “Effect grade on crop” value was 3 (Herbicidal ratio of 40% or higher and lower than 70%). Also, the “Herbicidal effect grade, A: Echinochloa oryzacola Vasing.” value in data set [2] was 3 (Herbicidal ratio of 40% or higher and lower than 70%). For the same compound, the “H: Echinochloa crus-galli var. crus-galli, herbicidal effect grade” value in data set [3] is 4 (Herbicidal ratio of 70% or higher and lower than 90%). For the same compound, in the data set on Leptochloa chinensis, the “herbicidal effect on D” value was 5 (Herbicidal ratio of 90% or more (almost completely withered)). Moreover, the “R: Veronica persica, herbicidal effect grade” value in the data set on Veronica persica [4] and in the data set on Veronica persica [5] was 0 (Herbicidal ratio of 5% or lower (almost no effect)) throughout. Also, the “G: Setaria viridis, herbicidal effect grade” value with Setaria viridis is 5 (Herbicidal ratio of 90% or more (almost completely withered)). Further, the “I: Avena fatua, herbicidal effect grade” value in the data set with Avena fatua [6] is 2 (Herbicidal ratio of 20% or higher and lower than 40%); in the data set with Avena fatua [8] it was 0 (Herbicidal ratio of 5% or lower (almost no effect)). Moreover, the “F: Digitaria ciliaris, herbicidal effect grade” value with Digitaria ciliaris is 4 (Herbicidal ratio of 70% or higher and lower than 90%). In addition, the “K: Lolium multiflorum Lam., herbicidal effect grade” value with Lolium multiflorum Lam. is recorded as 0 (Herbicidal ratio of 5% or lower (almost no effect)). The “c: corn, effect on crop grade” value in the data set with corn is 3 (Herbicidal ratio of 40% or higher and lower than 70%).
Consider `CC(=O)CC1CC(O)=C(c2c(C)cc(-n3cccn3)cc2C)C1=O` (stereo not shown) [7-024], for which the “Herbicidal effect grade, O: Chenopodium album” value in the data set on Chenopodium album [1] is 0 (Herbicidal ratio of 5% or lower (almost no effect)). In addition, the “Effect grade on crop” value in the data set with transplanted rice plant is 2 (Herbicidal ratio of 20% or higher and lower than 40%). In addition, the “Herbicidal effect grade, A: Echinochloa oryzacola Vasing.” value in data set [2] was 1 (Herbicidal ratio of 5% or higher and lower than 20%). In data set [3], the “Herbicidal effect grade, H: Echinochloa crus-galli var. crus-galli” value is 0 (Herbicidal ratio of 5% or lower (almost no effect)). For the same compound, in the data set with Leptochloa chinensis, the “herbicidal effect on D” value was 5 (Herbicidal ratio of 90% or more (almost completely withered)). Further, the “R: Veronica persica, herbicidal effect (criteria of Test Example 1)” value with Veronica persica [4] was 0 (Herbicidal ratio of 5% or lower (almost no effect)). The “Herbicidal effect grade, R: Veronica persica” value in the data set with Veronica persica [5] is on record as 0 (Herbicidal ratio of 5% or lower (almost no effect)). In the data set with Setaria viridis, the “G: Setaria viridis, herbicidal effect (criteria of Test Example 1)” value is on record as 0 (Herbicidal ratio of 5% or lower (almost no effect)). Moreover, the “I: Avena fatua, herbicidal effect (criteria of Test Example 1)” value in the data set on Avena fatua [6] is 2 (Herbicidal ratio of 20% or higher and lower than 40%). In the data set on Chenopodium album [7], the “O: Chenopodium album, herbicidal effect (criteria of Test Example 1)” value is given as 0 (Herbicidal ratio of 5% or lower (almost no effect)). Further, in the data set on Avena fatua [8], the “Herbicidal effect grade, I: Avena fatua” value is listed as 0 (Herbicidal ratio of 5% or lower (almost no effect)). Moreover, the “Herbicidal effect grade, F: Digitaria ciliaris” value with Digitaria ciliaris is 4 (Herbicidal ratio of 70% or higher and lower than 90%). Also, the “Herbicidal effect grade, K: Lolium multiflorum Lam.” value in the data set with Lolium multiflorum Lam. is listed as 0 (Herbicidal ratio of 5% or lower (almost no effect)). Moreover, in the data set with corn, the “c: corn, effect on crop (criteria of Test Example 1)” value was 1 (Herbicidal ratio of 5% or higher and lower than 20%).
